# “Also recorded” adds a separate entry of the source.
# Key:
# [1] = tested on: JTC-19 line; details: JTC-19 lung cancer line; cited from earlier work
# [2] = tested on: ICH mice; experiment: Collagenase-induced intracerebral hemorrhage (ICH), tape removal test; assay type: in vivo, mouse; details: 10 mg/Kg i.p. from 24 h after collagenase, every day for 3 weeks; from day 7 onwards (days 7 and 21 vs saline)
# Experimental: To assess the effect of 2-DG on the Bdnf gene expression, mice were injected with either saline or 2-DG (10 mg/Kg) intraperitoneally for 6 h and then mice were euthanized properly, and hippocampi were dissected out from mice brain. In order to assess functional improvement with 2-DG treatment after ischemic stroke, mice were injected with 2-DG (10 mg/Kg) intraperitoneally 24 h after induction of the stroke and then every day for four weeks. For assessing functional improvement with 2-DG treatment after hemorrhagic stroke, mice were injected with 2-DG (10 mg/Kg) intraperitoneally 24 h after induction of the stroke and then every day for three weeks. ICH was induced as described before (Karuppagounder et al., 2016). Briefly, male C57BL/6 mice (8 to 10 weeks of age; Charles River) were anesthetized with isoflurane (2 to 5%) and placed on a stereotaxic frame. During the procedure, the animal's body temperature was maintained at 37° ° C. with a homeothermic blanket. […] of collagenase (0.075 IU; Sigma) was infused into the right striatum at a flow rate of […] with a nanomite syringe pump (Harvard Apparatus) and a Hamilton syringe. […] The time from which the tape was applied to when the mouse successfully removed it was recorded for each paw. […]
# [3] = tested on: HEK293 cell line; details: cited from earlier work
# [4] = tested on: Creba, Crebb, Bdnf exon IV; experiment: Plasticity gene expression in human i.p.s. derived mature cortical neurons; assay type: cell-based; details: increasing concentrations, 6 h
# Experimental: Human iPSC line (C1-1) was previously generated from skin biopsy samples of newborn and had been fully characterized and passaged on MEF feeder layers (Wen et al. 2014). All studies followed institutional IRB and ISCRO protocols approved by University of Pennsylvania Perelman School of Medicine. Human iPSCs were differentiated into cortical neurons following the previously established protocol (Wen et al. 2014). Briefly, hiPSCs colonies were detached from the feeder layer with 1 mg/ml collagenase (Thermo Fisher Scientific) treatment for 30 min and suspended in embryonic body (EB) medium, consisting of bFGF-free iPSC medium supplemented with 2 μM Dorsomorphin (Tocris) and 2 μM A-83 (Tocris), in non-treated polystyrene plates for 4 days with a daily medium change. […]
# The gene expression of Bndf exon IV, Creba and Crebb in human i.p.s. derived neurons were also assessed using two step qPCR. […] Quantitative RT-PCR was then performed using SYBR green (Applied Biosystems) and the StepOnePlus™ Real-Time PCR System (Applied Biosystems). Quantitative levels for all genes were normalized to the housekeeping gene GAPDH and expressed relative to the relevant control samples. […]
# [5] = tested on: human Bdnf promoters; experiment: Human Bdnf promoter luciferase reporters in HT22 cells; assay type: cell-based, mouse; details: 10 mM, 6 h
# [6] = tested on: triple transgenic model of AD; details: cited from earlier work
# [7] = tested on: Bdnf; experiment: Bdnf gene expression in mouse brain cortex after intraperitoneal injection; assay type: in vivo
smiles,measurement,setting,value
"OC[C@H]1OC(O)C[C@@H](O)[C@@H]1O (stereo partly drawn) [2-DG, (4R,5S,6R)-6-(hydroxymethyl)oxane-2,4,5-triol]",Bdnf gene expression,[1],inhibit the Bdnf gene expression
same,tape removal test after hemorrhagic stroke,[2],significant improvement; also recorded: significant difference
same,Bdnf gene expression,[3],inhibit the Bdnf gene expression
same,"gene plasticity response (Creba, Crebb, Bdnf exon IV mRNA)",[4],gene plasticity response of neurons was still the same
same,promoter activity of nine human Bdnf promoters,[5],all Bdnf promoters except Bdnf promoter VI were significantly upregulated
same,brain energy metabolism and amyloid pathology,[6],improve brain energy metabolism and amyloid pathology
same,Bdnf gene expression in mouse brain cortex,[7]; 10 mg/Kg intraperitoneal injection for 6 h,significant increase
same,driving the adaptive plasticity program,[7]; intraperitoneal injection at 10 mg/Kg,sufficient in driving the adaptive plasticity program
